“And” between values parts separate entries of the source, which are not always exact repeats. Equal values may be shown once.

In general, half-life refers to the time in which the quantity being followed falls by half.

One series deals with T1, PDE IV (A4B) (Homo sapiens, UniProt P27815).
T1 construct: Houslay lab, Glasgow/Scotland (obtained from another laboratory)
The series can be described thus: Stability against PDE IV, HPLC. Format: in vitro ADME. The following applies: human, Houslay lab), pH 7.2, read-out: half life of hydrolysis. As to the method:
Next, stability of the disclosed boranophosphates against PDE IV (A4B, Houslay lab, Glasgow/Scotland) was tested in similar experiments as described above.

A short description of series [1]: Degradation Example 2: oxidation with hydrogen peroxide, monitored by HPLC. The class given is physicochemical. As to the method:
Thus, 0.05 μmol of the Rp-isomer of 8-(4-chlorophenylthio)adenosine-3′,5′-cyclic boranophosphate (Rp-8-pCPT-cAMPB, example 9), was treated stepwise with 5 μl portions of 30% aqueous hydrogen peroxide solution (Merck) every 30 min. The oxidation process was monitored by reversed phase HPLC (RP-18, 25 Vol.-% acetonitrile, 20 mM triethylammonium formate buffer, pH 6.1, 2 ml/min, UV 280 nm). As a control the corresponding cyclic nucleotide with phosphorothioate modification (Sp-8-pCPT-cAMPS, Biolog) was added. In summary, 15 μl peroxide, were applied.

In another series the target is T2, protein kinase G I α (Homo sapiens, UniProt Q13976).
T2 sequence (Q13976 1-671): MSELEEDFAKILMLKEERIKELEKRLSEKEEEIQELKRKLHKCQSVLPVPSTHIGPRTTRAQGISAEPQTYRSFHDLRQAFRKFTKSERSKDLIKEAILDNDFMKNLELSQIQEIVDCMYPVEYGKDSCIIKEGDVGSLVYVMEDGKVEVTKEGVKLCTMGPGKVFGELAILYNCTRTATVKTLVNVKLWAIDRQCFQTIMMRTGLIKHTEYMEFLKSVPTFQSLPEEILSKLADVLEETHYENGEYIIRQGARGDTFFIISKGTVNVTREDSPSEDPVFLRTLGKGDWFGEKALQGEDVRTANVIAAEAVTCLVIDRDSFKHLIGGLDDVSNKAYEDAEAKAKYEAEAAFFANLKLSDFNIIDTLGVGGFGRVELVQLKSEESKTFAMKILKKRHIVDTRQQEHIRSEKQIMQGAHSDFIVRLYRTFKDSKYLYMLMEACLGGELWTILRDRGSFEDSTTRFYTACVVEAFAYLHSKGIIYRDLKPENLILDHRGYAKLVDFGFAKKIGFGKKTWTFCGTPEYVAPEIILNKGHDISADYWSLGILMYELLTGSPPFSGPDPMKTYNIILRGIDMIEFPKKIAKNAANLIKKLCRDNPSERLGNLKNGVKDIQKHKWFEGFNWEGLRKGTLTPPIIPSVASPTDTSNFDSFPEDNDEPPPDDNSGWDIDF
Put plainly: Protein kinase G I alpha activation, phosphotransferyl assay. The class given is biochemical. The following applies: 10 nM, 100 nM and 1 μM. From the text: Next, the activity profile of some cyclic boranophosphates disclosed in this invention has also been investigated on protein kinase G I α (FIGS. 8 and 9). Potential activatory potential towards the enzyme has been determined by a standard phosphotransferyl assay protocol according to Dostmann et al. (Dostmann, W. R.; Nickl, C.; Thiel, S.; Tsigelny, I.; Frank, R.; and Tegge, W. J., Pharmacol. Ther., 82, 373-387 (1999). FIG. 8 depicts the activity (μmol×min^−1×mg^−1) overview of six different cyclic boranophosphate analogues with protein kinase G type I at 10 nM, 100 nM and 1 μM. BLG-9108: […]; BLG-9110: Sp-8-Br-cAMPB; BLG-9111: Rp-8-Br-cAMPB; BLG-9112: Sp-8-Br-cGMPB; BLG-9113: Rp-8-Br-cGMPB; control: cyclic GMP.

A short description of series [2]: Degradation Example 3: oxidation with hydrogen peroxide, monitored by HPLC. Format: physicochemical. The following applies: after 90 min. at RT. As to the method:
Thus, 0.1 μmol of the Rp-isomer of 8-(4-chlorophenylthio)-2′-O-methyladenosine-3′,5′-cyclic boranophosphate (Rp-8-pCPT-2′-O-Me-cAMPB, example 44), dissolved in 300 μl of water, was treated stepwise with 2 μl portions of 30% aqueous hydrogen peroxide solution (Merck). The oxidation process was monitored again by reversed phase HPLC (RP-18, 30 Vol.-% acetonitrile, 20 mM triethylammonium formate buffer, pH 8.3, 2 ml/min, UV 282 nm). As a control, the corresponding cyclic nucleotide with phosphorothioate modification (Sp-8-pCPT-2′-O-Me-cAMPS, Biolog) was added. In summary, 20 μl peroxide, were applied.

Series [3] is described as follows: Degradation Example 7: oxidation with hydrogen peroxide, monitored by HPLC. Format: physicochemical. To be noted: for oxidation by peroxide: 5 portions of 30% H2O2; for HPLC Area %: hydrogen peroxide. As to the method:
The degradation experiment was monitored by HPLC (RP-18, 15 Vol.-% acetonitrile, 20 mM triethylammonium formate buffer, pH 6.5, 1 ml/min., UV 270 nm) and peak areas were recorded.

Series [4] concerns the target protein kinase A type I alpha holoenzyme (Homo sapiens, UniProt P10644). The series can be described thus: Standard photometric (Cook) assay with protein kinase A type I alpha holoenzyme. The class given is biochemical. To be noted: holoenzyme RIα. The text has this:
In a first experiment, the biological activity of the Rp- and Sp-isomer of 8-bromoadenosine-3′,5′-cyclic boranophosphate (examples 1 and 2) has been tested with the holoenzyme of protein kinase A type I alpha (FIGS. 3 and 4) using a standard photometric assay (Cook, P. F.; Neville, M. E., Jr.; Vrana, K. E.; Hartl, F. T. and Roskoski, R., Jr., Biochemistry 21, 5794-5799 (1982)).
As a control, two boranophosphate analogues with a 2′-O-methyl modification (Rp-2′-O-Me-cAMPB and Sp-2′-O-Me-cAMPB, examples 7 & 8) have been tested by the same type of assay with protein kinase A type I alpha as well.
FIG. 5 depicts the activity overview of four different cyclic boranophosphate analogues with protein kinase A type I alpha holoenzyme. 9108: Sp-2′-O-Me-cAMPB; 9109: Rp-2′-O-Me-cAMPB; 9110: Sp-8-Br-cAMPB; 9111: Rp-8-Br-cAMPB; controls: B 001: Rp-8-Br-cAMPS. Control: cAMP. “Cook Assay” with Holoenzyme RIα.

Another series has as its system PDE 1 from bovine heart. The series can be described thus: Resistance towards phosphodiesterase: incubation with PDE 1 from bovine heart, HPLC. The following applies: PDE 1, bovine heart. As to the method: For this purpose 0.1 μmol of Rp-8-bromoadenosine-3′,5′-cyclic boranophosphate (example 1) and Sp-8-bromoadenosine-3′,5′-cyclic boranophosphate […] dissolved in TRIS buffer pH 7.2 containing calcium chloride and calmodulin and incubated with PDE type I from bovine brain (Sigma-Aldrich) at 37° C. Activity of the enzyme was checked by hydrolysis of cyclic AMP. Stability was monitored by HPLC (RP-18, 11 Vol.-% propanol-2, 20 mM TEAF buffer, pH 6.8, 1 ml/min., UV 264 nm). […] This strategy of testing PDE performance was applied accordingly in degradation examples 10 and 11.
Thus, Rp-8-Br-cAMPB (example 1) and Sp-8-Br-cAMPS (Biolog, Bremen/Germany) were incubated with PDE 1 from bovine heart (Sigma-Aldrich) and monitored by HPLC as described above.
Rp-2′-O-Me-cAMPB (example 7) and Sp-2′-O-Me-cAMPS (Biolog, Bremen/Germany).

Series [5] in a line: Degradation Example 1: oxidation with hydrogen peroxide, monitored by HPLC. To be noted: after further addition of 10 μl of 30% H2O2, two hours at RT. The class given is physicochemical. From the text:
In order to check out the stability of the boranophosphates described in this invention towards oxidising conditions in comparison to the corresponding phosphorothioates, 0.1 μmol of the sodium salts of each, Rp-8-bromoadenosine-3′,5′-cyclic boranophosphate (Rp-8-Br-cAMPB, example 1), Sp-8-bromoadenosine-3′,5′-cyclic boranophosphate (Sp-8-Br-cAMPB, example 2), Rp-8-bromoadenosine-3′,5′-cyclic phosphorothioate (Rp-8-Br-cAMPS, Biolog) and Sp-8-bromoadenosine-3′,5′-cyclic phosphorothioate (Sp-8-Br-cAMPS, Biolog) were dissolved in 100 μl of eluent and the mixture was analyzed by HPLC (RP-18, 11% acetonitrile, 20 mM triethylammonium formate buffer, pH 6.1, 1.5 ml/min, UV 258 nm). The following elution profile was recorded: Rp-8-Br-cAMPS (5:13 min.)<Sp-8-Br-cAMPS (7:23 min.)<Sp-8-Br-cAMPB (9:13 min.)<Rp-8-Br-cAMPB ([…].).
Subsequently, aqueous hydrogen peroxide (Merck) was added in small portions while the stability of the four compounds was permanently monitored over time.
10 μl of H2O2 (0.3%) as well as 10 μl of 3% H2O2 were added to no effect.

Sequence of protein kinase A type I alpha holoenzyme (P10644 whole entry): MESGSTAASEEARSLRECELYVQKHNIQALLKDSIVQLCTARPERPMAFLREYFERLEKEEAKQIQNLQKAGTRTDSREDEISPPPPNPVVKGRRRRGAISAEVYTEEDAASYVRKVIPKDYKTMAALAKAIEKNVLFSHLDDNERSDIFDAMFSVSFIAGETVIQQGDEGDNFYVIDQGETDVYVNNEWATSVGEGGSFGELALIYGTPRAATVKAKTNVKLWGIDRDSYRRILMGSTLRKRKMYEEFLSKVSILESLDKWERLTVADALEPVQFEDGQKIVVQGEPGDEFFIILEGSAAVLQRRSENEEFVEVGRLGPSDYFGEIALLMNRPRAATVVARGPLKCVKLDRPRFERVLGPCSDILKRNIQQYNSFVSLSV
T1 sequence (P27815 whole entry): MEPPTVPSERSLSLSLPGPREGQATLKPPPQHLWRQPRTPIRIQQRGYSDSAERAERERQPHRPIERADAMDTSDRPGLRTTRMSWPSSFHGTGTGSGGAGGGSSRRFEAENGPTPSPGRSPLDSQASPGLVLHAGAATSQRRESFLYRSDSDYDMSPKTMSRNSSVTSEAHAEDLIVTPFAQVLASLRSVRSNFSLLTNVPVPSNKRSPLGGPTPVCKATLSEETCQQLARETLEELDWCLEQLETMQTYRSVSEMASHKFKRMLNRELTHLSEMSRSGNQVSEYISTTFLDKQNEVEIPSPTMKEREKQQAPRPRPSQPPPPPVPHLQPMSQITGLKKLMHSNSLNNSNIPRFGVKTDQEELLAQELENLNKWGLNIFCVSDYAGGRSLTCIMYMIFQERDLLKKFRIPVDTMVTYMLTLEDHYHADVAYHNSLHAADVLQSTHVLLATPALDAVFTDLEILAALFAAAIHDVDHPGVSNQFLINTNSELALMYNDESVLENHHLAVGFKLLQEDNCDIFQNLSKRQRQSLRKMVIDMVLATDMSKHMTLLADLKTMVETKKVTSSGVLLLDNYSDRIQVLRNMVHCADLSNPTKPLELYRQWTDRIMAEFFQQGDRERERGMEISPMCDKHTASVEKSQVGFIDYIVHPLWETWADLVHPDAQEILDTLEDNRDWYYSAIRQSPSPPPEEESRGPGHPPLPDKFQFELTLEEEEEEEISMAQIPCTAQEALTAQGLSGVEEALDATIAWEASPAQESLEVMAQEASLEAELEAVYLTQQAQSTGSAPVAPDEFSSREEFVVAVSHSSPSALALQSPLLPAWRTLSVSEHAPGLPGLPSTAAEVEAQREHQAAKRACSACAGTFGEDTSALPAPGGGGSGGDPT

On to `Nc1ncnc2c1ncn2[C@@H]1O[C@@H]2COP(=O)(O)O[C@H]2[C@H]1O` [cAMP, cyclic adenosine-3′,5′-monophosphate, reference compound], for which, at PDE IV (A4B), the half-life was determined as 5 min.
For `B[PH]1(O)OC[C@H]2O[C@@H](n3c(Sc4ccc(Cl)cc4)nc4c(N)ncnc43)C(O)[C@@H]2O1` (stereo partly drawn) [Rp-8-pCPT-cAMPB, 8-(4-Chlorophenylthio)adenosine-3′,5′-cyclic boranophosphate, Rp-isomer], the “HPLC Area %” value in series [1] (Time 0.00 h) is 100%; in series [1] (Time 0.50 h), 87.51%; in series [1] (Time 1.00 h) it was 82.89%; in series [1] (Time 1.50 h, RT), 79% and 79.25%; in series [1] (Time 18.00 h), 30% and 29.56%.
Take “8-Bromoguanosine-3′,5′-cyclic boranophosphate, Rp-isomer [Rp-8-Br-cGMPB]”: the “activation of protein kinase G” value at protein kinase G I α is recorded as “activated the kinase”.
For `Nc1ncnc2c1nc(Sc1ccc(Cl)cc1)n2[C@@H]1O[C@@H]2COP([O-])(=S)O[C@H]2[C@H]1O.[Na+]` (stereo partly shown) [Sp-8-pCPT-cAMPS, reference compound], the “HPLC Area %” value in series [1] (Time 0.00 h) is 100%; in series [1] (Time 0.50 h), 81.7%; in series [1] (Time 1.00 h), 57.47%; in series [1] (Time 1.50 h, RT), 45.71%; in series [1] (Time 18.00 h), “completely vanished”; in series [1] (Time 18.00 h, listed as Sp-8-pCPT-CAMPS) it was 0%. Further, the degraded entry in series [1] (after 1.5 hours at RT) was “more than 50%”.
With `B[PH]1(O)OC[C@H]2O[C@@H](n3c(Sc4ccc(Cl)cc4)nc4c(N)ncnc43)C(OC)[C@@H]2O1` (stereo partly drawn) [Rp-8-pCPT-2′-O-Me-cAMPB, 8-(4-Chlorophenylthio)-2′-O-methyladenosine-3′,5′-cyclic boranophosphate, Rp-isomer], the “peak area, % of the original area” value in series [2] is 50%.
The same measure, in the same setting: as for `CO[C@H]1C2OP(O)(=S)OC[C@H]2O[C@H]1n1c(Sc2ccc(Cl)cc2)nc2c(N)ncnc21` (stereo partly shown) [Sp-8-pCPT-2′-O-Me-cAMPS, reference compound], the entry is “completely degraded”.
Consider `B[PH]1(O)OC[C@H]2O[C@@H](n3ccc(N)nc3=O)C(O)[C@@H]2O1` (stereo partly drawn) [Rp-cCMPB, Cytidine-3′,5′-cyclic boranophosphate, Rp-isomer], for which the “oxidation by peroxide” value in series [3] is on record as “considerably higher resistance”. The “HPLC Area %” value in series [3] (Time 0 min) is 100%; in series [3] (Time 10 min), 99%; in series [3] (Time 20 min), 98%; in series [3] (Time 34 min), 96%; in series [3] (Time 65 min), 91%; in series [3] (Time 81 min), 84%. The entries for the “HPLC Area %” value in series [3] (Time 92 min) and in series [3] (Time 98 min) were 78% and 79%, respectively.
Consider “2′-O-Methyladenosine-3′,5′-cyclic boranophosphate, Sp-isomer [Sp-2′-O-Me-cAMPB]”, for which, in series [4], the “effect on protein kinase A type I alpha holoenzyme” value is recorded as “neither Rp- nor Sp-2′-O-Me-cAMPB did modulate the kinase in any way”.
In the case of `COC1C2OP(O)(=S)OCC2OC1n1cnc2c(N)ncnc21` (stereo not shown) [Sp-2′-O-Me-cAMPS, reference compound], the “half life of degradation” value in the series with PDE 1 from bovine heart stood at 1800 min.
`Nc1ncnc2c1nc(Br)n2C1OC2COP(O)(=S)OC2C1O` (stereo not shown) [Rp-8-Br-cAMPS, Rp-8-bromoadenosine-3′,5′-cyclic phosphorothioate, reference compound]: the “HPLC signal after oxidation” value in series [5] was “completely vanished”.
For `Nc1ccn([C@@H]2O[C@@H]3COP(O)(=S)O[C@H]3[C@H]2O)c(=O)n1` (single isomer, unassigned) [Sp-cCMPS, cytidine-3′,5′-cyclic phosphorothioate, Sp-isomer, reference compound], the “oxidation by peroxide” value in series [3] is recorded as “rapidly oxidized”. In addition, the “HPLC Area %” value in series [3] (Time 0 min) was determined as 100%; in series [3] (Time 10 min), 94%; in series [3] (Time 20 min), 85%; in series [3] (Time 34 min) it was 69%; in series [3] (Time 65 min), 46%; in series [3] (Time 81 min), 23%. Also, the results for the “HPLC Area %” value in series [3] (Time 92 min) and in series [3] (Time 98 min) were 14% and 13%, respectively.

The record behind these values is patent US9487553B2, “Boranophosphate analogues of cyclic nucleotides” (BIOLOG LIFE SCIENCE INSTITUTE FORSCHUNGSLABOR UND …, priority 2011, dated 2016).
